Assay results reported in US10111892B2, “Anti-cancer agent” (priority 2009, dated 2018).

Columns and labels:
[1] = test system: KB (oral squamous cell carcinoma); experiment: In vitro anti-tumor activity test (MTT), KB cells; type: cell-based; conditions: 48 hours of culture
Description: (§1) [In Vitro Anti-Tumor Activity Test]
(§2) The phosphine transition metal complexes obtained in the examples and the comparative examples were subjected to an in vitro anti-tumor activity test. Specifically, KB (oral squamous cell carcinoma) and A375 (malignant melanoma) were used as cancer cells, and these cells were cultured in an incubator at 37° C. in a culture medium (RPMI-1640 or DEME) to which 10% inactivated fetal calf serum, L-glutamine, sodium pyruvate, 1×10^5 U/L of penicillin, and 100 mg/L of streptomycin had been supplemented. The cells were added such that each well contained 2×10^5 cells. Subsequently, the phosphine transition metal complex dissolved in dimethylsulfoxide was added to the medium and cultured for 48 hours. After the 48 hours of culture, a 5 mg/ml (3,[4,5-dimethylthiazol-2-yl]-2,5-diphenyltetrazolium bromide MTT) solution was added at 20 μl to each well, followed by culture for 3 to 4 hours in an incubator. Thereafter, 100 μl of a solution was further added to each well to completely solubilize the generated formazan crystals. The absorbance of the resultant at 492 nm was then measured, and IC50 was calculated.

[2] = test system: A375 (malignant melanoma); experiment: In vitro anti-tumor activity test (MTT), A375 cells; type: cell-based; conditions: 48 hours of culture
Description: as §1, §2

KM rats = experiment: Toxicity test, single oral administration to rats; type: in vivo; conditions: for Oral administration LD50: male and female KM rats, single oral dose in corn oil, observed to the fourteenth day
Description: Toxicity caused when the phosphine transition metal complexes obtained in the examples and the comparative examples were orally administered to rats was tested. Specifically, male and female KM rats were quarantined and raised while being acclimated, and then the selected 20 rats in total including 10 male rats and 10 female rats were formed into a group. The phosphine transition metal complexes obtained in the examples and comparative examples were orally administered once to rats which were fasted over night before the administration and whose weights were recorded, by using corn oil as a solvent and with a design such that a group showing sufficient fatal cases was included to determine LD50.

Molecule	In vitro anti-tumor activity IC50, KB [1] [µg/mL]	In vitro anti-tumor activity IC50, A375 [2] [µg/mL]	Oral administration LD50 (KM rats) [mg/kg]	toxicity (in words) (KM rats; oral administration to rats, compared with the other complexes)
CP(c1nc2ccccc2nc1P(C)C(C)(C)C)C(C)(C)C.CP(c1nc2ccccc2nc1P(C)C(C)(C)C)C(C)(C)C.[Au+].[Cl-] (stereo not shown) [Comparative Example 1, Bis(2,3-bis(tert-butylmethylphosphino)quinoxaline)gold(I) chloride, reference compound]	1.11	2.26	90.99	relatively high
CP(c1nc2ccccc2nc1P(C)C(C)(C)C)C(C)(C)C.CP(c1nc2ccccc2nc1P(C)C(C)(C)C)C(C)(C)C.[Au+].[Cl-] (stereo not shown) [Example 1, bis(2,3-bis(tert-butylmethylphosphino)quinoxaline)gold(I) chloride]	0.94	1.13	134.37	–
CP(c1nc2ccccc2nc1P(C)C(C)(C)C)C(C)(C)C.CP(c1nc2ccccc2nc1P(C)C(C)(C)C)C(C)(C)C.[Au+].[Cl-] (stereo not shown) [Example 3, Bis(2,3-bis(tert-butylmethylphosphino)quinoxaline)gold(I) chloride]	0.97	1.22	118.66	–
Bis(2,3-bis(tert-butylmethylphosphino)quinoxaline) gold(I) chloride [Example 2]	1.03	1.94	97.44	–
